Assay results as given in patent publication US20080051429A1, “USE OF 4-AMINO-PIPERIDINES FOR TREATING SLEEP DISORDERS” (priority 2006, published 2008).

What was measured:
Assay in all cases: R-SAT broad profiling
Assay type in all cases: cell-based
Design in all cases: expressed in transfected cells; host or cells: NIH3T3
5HT1A = target: T1, 5HT1A (Homo sapiens, UniProt P08908); settings: agonist; read-out: pEC50 or pIC50 (converted)
T1 sequence (P08908 1-422): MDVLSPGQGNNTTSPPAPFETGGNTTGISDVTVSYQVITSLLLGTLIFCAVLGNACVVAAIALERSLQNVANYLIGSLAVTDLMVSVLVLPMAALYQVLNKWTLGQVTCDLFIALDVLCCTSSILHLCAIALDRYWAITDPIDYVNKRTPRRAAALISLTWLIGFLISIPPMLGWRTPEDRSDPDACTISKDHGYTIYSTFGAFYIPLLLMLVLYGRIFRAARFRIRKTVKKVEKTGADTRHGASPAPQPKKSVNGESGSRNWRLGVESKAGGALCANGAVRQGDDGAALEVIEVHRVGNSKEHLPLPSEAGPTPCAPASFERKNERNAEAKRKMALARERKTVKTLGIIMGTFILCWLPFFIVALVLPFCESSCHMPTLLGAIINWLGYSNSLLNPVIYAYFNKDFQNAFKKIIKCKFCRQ
Description: (§1) The functional receptor assay, Receptor Selection and Amplification Technology (R-SAT), was used (with minor modifications from that previously described U.S. Pat. No. 5,707,798) to screen compounds for efficacy at the 5-HT2A receptor. Briefly, NIH3T3 cells were grown in 96 well tissue culture plates to 70-80% confluence. Cells were transfected for 12-16 hours with plasmid DNAs using superfect (Qiagen Inc.) as per manufacture's protocols. R-SAT's were generally performed with 50 ng/well of receptor and 20 ng/well of Beta-galactosidase plasmid DNA. All receptor and G-protein constructs used were in the pSI mammalian expression vector (Promega Inc) as described in U.S. Pat. No. 5,707,798. The 5HT2A receptor gene was amplified by nested PCR from brain cDNA using the oligodeoxynucleotides based on the published sequence (see Saltzman et. al. Biochem. Biophys. Res. Comm. 181:1469-78 (1991)). Large-scale transfections, cells were transfected for 12-16 hours, then trypsinized and frozen in DMSO. Frozen cells were later thawed, plated at 10,000-40,000 cells per well of a 96 well plate that contained drug. With both methods, cells were then grown in a humidified atmosphere with 5% ambient CO2 for five days. Media was then removed from the plates and marker gene activity was measured by the addition of the beta-galactosidase substrate ONPG (in PBS with 5% NP-40). The resulting colorimetric reaction was measured in a spectrophotometric plate reader (Titertek Inc.)at […]. All data were analyzed using the computer program XLFit (IDBSm). Efficacy is the percent maximal repression compared to repression by a control compound (ritanserin in the case of 5HT2A). pIC50 is the negative of the log(IC50), where IC50 is the calculated concentration in Molar that produces 50% maximal repression.
(§2) The R-SAT assay (described above in example 289) was used to investigate the selectivity of 4-(4-Fluoro-benzyl)-3-(4-isobutoxy-benzyl)-8-methyl-1-oxa-3,8-diaza-spiro[4.5]decan-2-one.

5HT1B = 5HT1B (Homo sapiens, UniProt P28222); settings: read-out: pEC50 or pIC50 (converted)
Chain of 5HT1B (P28222 whole entry, species assumed): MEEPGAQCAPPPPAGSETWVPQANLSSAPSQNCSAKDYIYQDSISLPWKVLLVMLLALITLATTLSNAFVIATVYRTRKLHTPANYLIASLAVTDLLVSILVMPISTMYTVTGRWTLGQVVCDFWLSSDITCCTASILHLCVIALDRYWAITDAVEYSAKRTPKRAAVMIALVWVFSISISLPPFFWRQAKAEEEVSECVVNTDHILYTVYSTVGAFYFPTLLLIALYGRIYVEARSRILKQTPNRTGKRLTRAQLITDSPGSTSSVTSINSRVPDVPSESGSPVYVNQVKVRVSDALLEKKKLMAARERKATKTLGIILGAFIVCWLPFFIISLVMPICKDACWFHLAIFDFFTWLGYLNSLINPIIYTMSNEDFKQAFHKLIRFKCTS
Description: as §1, §2

5HT1D = 5HT1D (Homo sapiens, UniProt P28221); settings: read-out: pEC50 or pIC50 (converted)
Chain of 5HT1D (P28221 whole entry, species assumed): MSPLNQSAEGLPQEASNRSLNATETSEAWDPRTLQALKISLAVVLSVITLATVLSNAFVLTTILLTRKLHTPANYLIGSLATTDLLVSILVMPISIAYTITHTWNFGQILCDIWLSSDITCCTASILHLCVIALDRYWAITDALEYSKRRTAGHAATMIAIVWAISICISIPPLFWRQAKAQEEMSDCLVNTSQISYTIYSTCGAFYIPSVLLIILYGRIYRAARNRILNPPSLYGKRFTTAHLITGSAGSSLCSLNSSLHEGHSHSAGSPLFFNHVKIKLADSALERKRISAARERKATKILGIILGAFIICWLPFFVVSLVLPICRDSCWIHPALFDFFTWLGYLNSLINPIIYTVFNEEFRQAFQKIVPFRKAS
Description: as §1, §2

5HT1E = 5HT1E (Homo sapiens, UniProt P28566); settings: read-out: pEC50 or pIC50 (converted)
Chain of 5HT1E (P28566 whole entry): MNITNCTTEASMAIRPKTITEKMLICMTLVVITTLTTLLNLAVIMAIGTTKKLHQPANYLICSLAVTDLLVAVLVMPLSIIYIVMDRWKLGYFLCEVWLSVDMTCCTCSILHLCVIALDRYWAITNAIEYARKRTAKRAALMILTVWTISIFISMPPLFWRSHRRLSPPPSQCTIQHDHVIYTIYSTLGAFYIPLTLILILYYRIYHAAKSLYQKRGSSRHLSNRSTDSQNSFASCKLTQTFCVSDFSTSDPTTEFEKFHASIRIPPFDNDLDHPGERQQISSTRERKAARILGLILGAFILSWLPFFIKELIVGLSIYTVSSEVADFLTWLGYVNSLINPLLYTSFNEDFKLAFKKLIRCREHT
Description: as §1, §2

5HT1F = target: T2, 5HT1F (Homo sapiens, UniProt P30939); settings: read-out: pEC50 or pIC50 (converted)
T2 sequence (P30939 1-366): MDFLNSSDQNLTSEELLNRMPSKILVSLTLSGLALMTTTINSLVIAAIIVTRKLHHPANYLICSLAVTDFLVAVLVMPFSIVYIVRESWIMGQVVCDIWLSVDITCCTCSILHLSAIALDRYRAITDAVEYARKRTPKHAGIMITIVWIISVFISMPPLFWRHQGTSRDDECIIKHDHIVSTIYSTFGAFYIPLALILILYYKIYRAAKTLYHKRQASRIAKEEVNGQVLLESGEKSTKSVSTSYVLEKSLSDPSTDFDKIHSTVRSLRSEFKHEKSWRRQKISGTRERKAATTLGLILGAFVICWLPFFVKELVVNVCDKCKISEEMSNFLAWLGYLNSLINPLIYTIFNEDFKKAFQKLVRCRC
Description: as §1, §2

5HT2C = target: T3, 5HT2C (Homo sapiens, UniProt P28335)
T3 sequence (P28335 33-458): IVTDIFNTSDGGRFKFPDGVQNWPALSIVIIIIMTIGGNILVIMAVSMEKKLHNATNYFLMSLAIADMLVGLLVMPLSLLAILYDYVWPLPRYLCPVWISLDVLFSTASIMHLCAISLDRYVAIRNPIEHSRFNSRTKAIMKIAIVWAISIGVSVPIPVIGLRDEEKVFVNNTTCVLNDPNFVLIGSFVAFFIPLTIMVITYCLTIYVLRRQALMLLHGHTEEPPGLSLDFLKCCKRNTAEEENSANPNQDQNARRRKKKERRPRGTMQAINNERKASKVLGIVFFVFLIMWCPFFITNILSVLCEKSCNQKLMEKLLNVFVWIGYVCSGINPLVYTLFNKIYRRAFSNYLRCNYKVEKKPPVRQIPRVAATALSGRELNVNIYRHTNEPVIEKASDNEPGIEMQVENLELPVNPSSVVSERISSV
Description: as §1, §2

D2 = D2 (Homo sapiens, UniProt P14416); settings: read-out: pEC50 or pIC50 (converted)
Chain of D2 (P14416 whole entry): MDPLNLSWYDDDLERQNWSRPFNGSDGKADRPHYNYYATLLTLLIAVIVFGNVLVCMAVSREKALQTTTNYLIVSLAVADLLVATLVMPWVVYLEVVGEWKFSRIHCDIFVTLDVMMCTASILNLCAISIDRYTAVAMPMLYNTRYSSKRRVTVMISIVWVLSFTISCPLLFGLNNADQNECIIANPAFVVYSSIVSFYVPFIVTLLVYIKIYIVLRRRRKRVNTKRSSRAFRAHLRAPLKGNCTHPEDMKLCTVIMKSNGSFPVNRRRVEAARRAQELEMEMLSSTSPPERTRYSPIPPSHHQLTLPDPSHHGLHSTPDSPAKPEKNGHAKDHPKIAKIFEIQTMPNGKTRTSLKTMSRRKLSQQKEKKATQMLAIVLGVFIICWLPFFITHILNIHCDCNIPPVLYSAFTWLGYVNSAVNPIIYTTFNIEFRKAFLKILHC
Description: as §1, §2

H1 = H1 (Homo sapiens, UniProt P35367); settings: agonist; read-out: pEC50 or pIC50 (converted)
Chain of H1 (P35367 whole entry): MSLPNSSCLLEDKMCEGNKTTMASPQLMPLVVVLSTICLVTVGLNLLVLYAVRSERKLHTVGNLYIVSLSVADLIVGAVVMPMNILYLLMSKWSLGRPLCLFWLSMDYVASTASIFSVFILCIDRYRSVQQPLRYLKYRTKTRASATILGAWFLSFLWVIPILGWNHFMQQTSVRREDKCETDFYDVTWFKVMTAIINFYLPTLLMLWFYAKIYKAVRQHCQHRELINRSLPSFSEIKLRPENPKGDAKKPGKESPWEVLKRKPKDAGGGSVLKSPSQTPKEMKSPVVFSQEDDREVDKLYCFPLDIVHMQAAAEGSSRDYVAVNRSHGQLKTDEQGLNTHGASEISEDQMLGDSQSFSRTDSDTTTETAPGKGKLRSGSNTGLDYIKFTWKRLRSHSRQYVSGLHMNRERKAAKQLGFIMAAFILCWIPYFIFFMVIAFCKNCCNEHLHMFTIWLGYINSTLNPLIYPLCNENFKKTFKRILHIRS
Description: as §1, §2

Q: Which EC50 (5HT1A) does the source give for `CC(C)COc1ccc(CN2C(=O)OC3(CCN(C)CC3)C2Cc2ccc(F)cc2)cc1.Cl` (racemic) [Example 69NLS75, 4-(4-Fluorobenzyl)-3-(4-isobutoxybenzyl)-8-methyl-1-oxa-3,8-diazaspiro[4.5]decan-2-one, hydrochloride] here?
A: The EC50 was greater than 3.16 µM.

Q: And the EC50 (5HT1B; agonist)?
A: The EC50 was greater than 3.16 µM.

Q: What about the IC50 (5HT1B; antagonist) of the same compound?
A: Its IC50 is greater than 3.16 µM.

Q: And the EC50 (5HT1D; agonist)?
A: Its EC50 is greater than 3.16 µM.

Q: What about the IC50 (5HT1D; antagonist) of the same compound?
A: The IC50 was greater than 0.562 µM.

Q: And the EC50 (5HT1E; agonist)?
A: The EC50 was greater than 3.16 µM.

Q: And the IC50 (5HT1E; antagonist)?
A: Its IC50 is greater than 0.631 µM.

Q: And the EC50 (5HT1F; agonist)?
A: The EC50 was greater than 3.16 µM.

Q: And the IC50 (5HT1F; antagonist)?
A: The IC50 was greater than 3.16 µM.

Q: And the EC50 (5HT2C; agonist, read-out: pEC50 or pIC50 (converted))?
A: Its EC50 is greater than 3.16 µM.

Q: What about the efficacy in brackets (5HT2C; inverse) of the same compound?
A: Its efficacy in brackets is 77%.

Q: What about the EC50 (D2; agonist) of the same compound?
A: The EC50 was greater than 3.16 µM.

Q: And the IC50 (D2; antagonist)?
A: Its IC50 is greater than 3.16 µM.

Q: And the EC50 (H1)?
A: The EC50 was greater than 3.16 µM.
